Assay [1] has as its target human norepinephrine transporter (NET) (Homo sapiens (Human), UniProt P23975). Put plainly: Binding assay to human norepinephrine transporter (NET) ([3H]-Nisoxetin). Conditions: Table 2, dual compounds; [3H]-Nisoxetin binding. As for the experimental part: Binding Assay to Human Norepinephrine Transporter (NET).
Human norepinephrine transporter (NET) enriched membranes (5 μg) were incubated with 5 nM of radiolabeled [3H]-Nisoxetin in assay buffer containing 50 mM Tris-HCl, 120 mM NaCl, 5 mM KCl, pH 7.4.
NSB (non specific binding) was measured by adding 1 μM. After 60 min incubation at 4° C., binding reaction was terminated by filtering through Multiscreen GF/C (Millipore) presoaked in 0.5% polyethyleneimine in Vacuum Manifold Station, followed by 3 washes with ice-cold filtration buffer containing 50 mM Tris-HCl, 0.9% NaCl, pH 7.4.
Filter plates were dried at 60° C. for 1 hour and 30 μl of scintillation cocktail were added to each well before radioactivity reading.

In assay [2] the target is human α2δ-1 subunit of Cav2.2 calcium channel (Homo sapiens (Human), UniProt P54289). Put plainly: Binding assay to human α2δ-1 subunit of Cav2.2 calcium channel ([3H]-Gabapentin). Conditions: read-out: Ki (nM) α2δ-1. The gist of the method: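 Radioactivity on dried GF/C filters quantified by scintillation after filtration and three cold Tris-HCl (pH 7.4) washes. Incubation ran 60 min at 27° C with [3H]-gabapentin; 10 μM pregabalin gave nonspecific binding.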
Chain of human α2δ-1 subunit of Cav2.2 calcium channel (P54289 25-1103): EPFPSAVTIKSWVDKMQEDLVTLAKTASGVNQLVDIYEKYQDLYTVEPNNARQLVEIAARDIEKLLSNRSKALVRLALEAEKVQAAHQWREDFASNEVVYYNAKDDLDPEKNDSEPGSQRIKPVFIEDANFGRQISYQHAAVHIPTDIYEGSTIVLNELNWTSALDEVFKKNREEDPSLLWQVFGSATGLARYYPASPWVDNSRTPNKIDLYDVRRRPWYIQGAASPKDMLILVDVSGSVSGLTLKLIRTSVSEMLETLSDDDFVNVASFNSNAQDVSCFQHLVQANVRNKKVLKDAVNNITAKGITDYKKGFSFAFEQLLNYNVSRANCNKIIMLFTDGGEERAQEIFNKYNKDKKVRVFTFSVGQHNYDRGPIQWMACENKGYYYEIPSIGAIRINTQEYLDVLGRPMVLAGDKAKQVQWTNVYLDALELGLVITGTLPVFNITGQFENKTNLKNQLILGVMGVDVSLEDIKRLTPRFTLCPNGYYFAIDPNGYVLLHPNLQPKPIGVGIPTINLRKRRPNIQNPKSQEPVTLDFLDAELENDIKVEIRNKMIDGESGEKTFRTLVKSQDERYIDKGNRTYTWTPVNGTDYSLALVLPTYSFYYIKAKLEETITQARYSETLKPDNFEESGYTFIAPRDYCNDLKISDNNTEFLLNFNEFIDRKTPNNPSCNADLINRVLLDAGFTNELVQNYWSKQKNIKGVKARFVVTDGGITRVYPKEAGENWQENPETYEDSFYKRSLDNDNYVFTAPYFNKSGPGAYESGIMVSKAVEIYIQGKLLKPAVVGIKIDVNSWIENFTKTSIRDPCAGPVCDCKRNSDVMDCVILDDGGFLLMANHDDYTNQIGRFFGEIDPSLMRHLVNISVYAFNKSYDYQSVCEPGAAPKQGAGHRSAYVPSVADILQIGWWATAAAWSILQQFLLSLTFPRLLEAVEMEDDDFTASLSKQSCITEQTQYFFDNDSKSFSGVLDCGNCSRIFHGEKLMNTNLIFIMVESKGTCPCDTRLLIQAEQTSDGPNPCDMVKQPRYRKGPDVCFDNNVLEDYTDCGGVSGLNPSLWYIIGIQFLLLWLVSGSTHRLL

The mark [3] stands for this setting: Table 2, dual compounds, [3H]-Gabapentin binding.
[4] abbreviates: binding to α2δ-1, [3H]-Gabapentin.

Where two headings read alike, the source gives them in different places.

Chain of human norepinephrine transporter (NET) (P23975 whole entry): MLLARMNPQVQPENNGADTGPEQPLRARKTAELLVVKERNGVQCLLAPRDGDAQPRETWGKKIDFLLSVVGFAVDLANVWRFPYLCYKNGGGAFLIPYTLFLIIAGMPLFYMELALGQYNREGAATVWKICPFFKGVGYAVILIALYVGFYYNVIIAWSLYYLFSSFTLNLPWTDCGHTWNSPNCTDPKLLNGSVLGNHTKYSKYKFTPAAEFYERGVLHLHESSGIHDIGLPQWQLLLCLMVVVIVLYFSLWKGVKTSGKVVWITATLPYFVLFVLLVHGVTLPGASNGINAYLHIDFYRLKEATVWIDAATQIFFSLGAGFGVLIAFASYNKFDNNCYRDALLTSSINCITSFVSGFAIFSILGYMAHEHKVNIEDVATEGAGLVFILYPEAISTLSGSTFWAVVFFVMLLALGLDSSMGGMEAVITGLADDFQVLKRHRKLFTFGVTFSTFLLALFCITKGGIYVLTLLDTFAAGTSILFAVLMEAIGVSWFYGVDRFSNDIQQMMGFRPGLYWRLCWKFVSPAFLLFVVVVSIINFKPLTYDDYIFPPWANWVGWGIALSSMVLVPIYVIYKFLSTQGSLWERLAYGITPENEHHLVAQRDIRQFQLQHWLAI

On to `CNCC[C@@H](OCc1cccc(N2CCN(C)c3nc(N(C)Cc4ccccn4)ncc3C2=O)c1)c1ccccc1` [Example 341, (R)-9-methyl-2-(methyl(pyridin-2-ylmethyl)amino)-6-(3-((3-(methylamino)-1-phenylpropoxy)methyl)phenyl)-6,7,8,9-tetrahydro-5H-pyrimido[4,5-e][1,4]diazepin-5-one], for which the Ki in assay [1], in assay [2] (setting [3]) and in assay [2] (setting [4]) was 100 to 500 nM each time.

For the compound `CCNc1ncc2c(n1)N(C)CCN(c1cccc(-n3cc(CN4CCC(c5ccccc5)CC4)nn3)c1)C2=O` [Example 278, 2-(Ethylamino)-9-methyl-6-(3-(4-((4-phenylpiperidin-1-yl)methyl)-1H-1,2,3-triazol-1-yl)phenyl)-6,7,8,9-tetrahydro-5H-pyrimido[4,5-e][1,4]diazepin-5-one], the Ki in assay [1] was less than 100 nM; in assay [2] (setting [3]) it was 500 to 3000 nM; in assay [2] (setting [4]), 500 to 3000 nM.

With `CCNc1ncc2c(n1)N(C)CCN(c1cccc(CO[C@H](CCNC)c3ccccc3)c1)C2` [Example 203, (R)—N-ethyl-9-methyl-6-(3-((3-(methylamino)-1-phenylpropoxy)methyl)phenyl)-6,7,8,9-tetrahydro-5H-pyrimido[4,5-e][1,4]diazepin-2-amine], the Ki in assay [1] was in the range of 500 to 1000 nM; in assay [2] (setting [3]) it was 500 to 3000 nM; in assay [2] (setting [4]), 500 to 3000 nM.

As for `CCNc1ncc2c(n1)N(C)CCN(c1cccc(-n3cc(CNCC4CC4)nn3)c1)C2=O` [Example 285, 6-(3-(4-(((cyclopropylmethyl)amino)methyl)-1H-1,2,3-triazol-1-yl)phenyl)-2-(ethylamino)-9-methyl-6,7,8,9-tetrahydro-5H-pyrimido[4,5-e][1,4]diazepin-5-one], the Ki in assay [1], in assay [2] (setting [3]) and in assay [2] (setting [4]) was 100 to 500 nM throughout.

For `CCNc1ncc2c(n1)N(C)CCN(Cc1cccc(COC(CCNC)c3ccccc3)c1)C2=O` (stereo not drawn) [Example 406, 2-(ethylamino)-9-methyl-6-(3-((3-(methylamino)-1-phenylpropoxy)methyl)benzyl)-6,7,8,9-tetrahydro-5H-pyrimido[4,5-e][1,4]diazepin-5-one], the Ki in assay [1] is 100 to 500 nM; in assay [2] (setting [3]), more than 3000 nM; in assay [2] (setting [4]), more than 3000 nM.

Turning to `CNCCC(OCc1cccc(CN2CCN(C)c3nc(C)ncc3C2=O)c1)c1ccccc1` (stereo not drawn) [Example 423, 2,9-dimethyl-6-(3-((3-(methylamino)-1-phenylpropoxy)methyl)benzyl)-6,7,8,9-tetrahydro-5H-pyrimido[4,5-e][1,4]diazepin-5-one], the results for the Ki in assay [1], in assay [2] (setting [3]) and in assay [2] (setting [4]) were 100 to 500 nM, more than 3000 nM and more than 3000 nM, respectively.

Turning to `CNCCC(OCc1cccc(N2CCN(C)c3nc(SC)ncc3C2=O)c1)c1cccs1` (stereo not drawn) [Example 208, 9-Methyl-6-(3-((3-(methylamino)-1-(thiophen-2-yl)propoxy)methyl)phenyl)-2-(methylthio)-6,7,8,9-tetrahydro-5H-pyrimido[4,5-e][1,4]diazepin-5-one], the figures for the Ki in assay [1], in assay [2] (setting [3]) and in assay [2] (setting [4]) were 500 to 1000 nM, 500 to 3000 nM and 500 to 3000 nM, respectively.

Turning to `CCNc1ncc2c(n1)N(C)CCN(c1cccc(CO[C@@H](CCN(C)C)c3ccccc3)c1)C2=O` [Example 237, (S)-6-(3-((3-(dimethylamino)-1-phenylpropoxy)methyl)phenyl)-2-(ethylamino)-9-methyl-6,7,8,9-tetrahydro-5H-pyrimido[4,5-e][1,4]diazepin-5-one], the values for the Ki in assay [1], in assay [2] (setting [3]) and in assay [2] (setting [4]) were more than 1000 nM, 500 to 3000 nM and 500 to 3000 nM, respectively.

With `CNCC[C@@H](OCc1cccc(N2CCN(C)c3nc(OC)ncc3C2=O)c1)c1ccccc1` [Example 204, (R)-2-methoxy-9-methyl-6-(3-((3-(methylamino)-1-phenylpropoxy)methyl)phenyl)-6,7,8,9-tetrahydro-5H-pyrimido[4,5-e][1,4]diazepin-5-one], the Ki lay within 100 to 500 nM in assay [1], 500 to 3000 nM in assay [2] (setting [3]) and 500 to 3000 nM in assay [2] (setting [4]).

In the case of `CCNc1ncc2c(n1)N(C)CCN(c1cccc(OC(CCNC)c3ccccn3)c1)C2=O` (stereo not drawn) [Example 193, 2-(ethylamino)-9-methyl-6-(3-(3-(methylamino)-1-(pyridin-2-yl)propoxy)phenyl)-6,7,8,9-tetrahydro-5H-pyrimido[4,5-e][1,4]diazepin-5-one], the Ki in assay [1] is more than 1000 nM; in assay [2] (setting [3]) it was 500 to 3000 nM; in assay [2] (setting [4]), 500 to 3000 nM.

For the compound `CNCCC(Oc1cccc(CN2CCN(C)c3nc(SC)ncc3C2=O)c1)c1ccccc1` (stereo not drawn) [Example 366, 9-methyl-6-(3-(3-(methylamino)-1-phenylpropoxy)benzyl)-2-(methylthio)-6,7,8,9-tetrahydro-5H-pyrimido[4,5-e][1,4]diazepin-5-one], the Ki in assay [1] was 500 to 1000 nM; in assay [2] (setting [3]) it was more than 3000 nM; in assay [2] (setting [4]) it was more than 3000 nM.

Consider `CNCC(OCc1ccc(N2CCN(C)c3nc(C)ncc3C2=O)cc1)c1ccccc1` (stereo not drawn) [Example 355, 2,9-dimethyl-6-(4-((2-(methylamino)-1-phenylethoxy)methyl)phenyl)-6,7,8,9-tetrahydro-5H-pyrimido[4,5-e][1,4]diazepin-5-one], for which the Ki in assay [1] was less than 100 nM; in assay [2] (setting [3]), more than 3000 nM; in assay [2] (setting [4]), more than 3000 nM.

On to `CNCC[C@H](OCc1cccc(N2CCN(C)c3nc(SC)ncc3C2=O)c1)c1ccccc1` [Example 165, (S)-9-methyl-6-(3-((3-(methylamino)-1-phenylpropoxy)methyl)phenyl)-2-(methylthio)-6,7,8,9-tetrahydro-5H-pyrimido[4,5-e][1,4]diazepin-5-one], for which the figures for the Ki in assay [1], in assay [2] (setting [3]) and in assay [2] (setting [4]) were 100 to 500 nM, more than 3000 nM and more than 3000 nM, respectively.

Turning to `CCNc1ncc2c(n1)N(C)CCN(c1cccc(-n3cc(CN(C)Cc4ccccc4)nn3)c1)C2=O` [Example 243, 6-(3-(4-((benzyl(methyl)amino)methyl)-1H-1,2,3-triazol-1-yl)phenyl)-2-(ethylamino)-9-methyl-6,7,8,9-tetrahydro-5H-pyrimido[4,5-e][1,4]diazepin-5-one], the Ki was less than 100 nM in assay [1], 500 to 3000 nM in assay [2] (setting [3]) and 500 to 3000 nM in assay [2] (setting [4]).

In the case of `CCc1ncc2c(n1)N(C)CCN(c1cccc(COC(CCNC)c3ccccc3)c1)C2=O` (stereo not drawn) [Example 354, 2-ethyl-9-methyl-6-(3-((3-(methylamino)-1-phenylpropoxy)methyl)phenyl)-6,7,8,9-tetrahydro-5H-pyrimido[4,5-e][1,4]diazepin-5-one], the Ki is 100 to 500 nM in assay [1], 500 to 3000 nM in assay [2] (setting [3]) and 500 to 3000 nM in assay [2] (setting [4]).

On to `CNCCC(OCc1ccc(CN2CCN(C)c3nc(SC)ncc3C2=O)cc1)c1ccccc1` (stereo not drawn) [Example 368, 9-methyl-6-(4-((3-(methylamino)-1-phenylpropoxy)methyl)benzyl)-2-(methylthio)-6,7,8,9-tetrahydro-5H-pyrimido[4,5-e][1,4]diazepin-5-one], for which the Ki in assay [1] is 100 to 500 nM; in assay [2] (setting [3]), more than 3000 nM; in assay [2] (setting [4]) it was more than 3000 nM.

For `CCNc1ncc2c(n1)N(C)CCN(c1cccc(COC(CNC)c3ccccc3)c1)C2=O` (stereo not drawn) [Example 225, 2-(Ethylamino)-9-methyl-6-(3-((2-(methylamino)-1-phenylethoxy)methyl)phenyl)-6,7,8,9-tetrahydro-5H-pyrimido[4,5-e][1,4]diazepin-5-one], the inhibition constant (Ki) in assay [1] is more than 1000 nM; in assay [2] (setting [3]) it was 500 to 3000 nM; in assay [2] (setting [4]), 500 to 3000 nM.

For orientation: Ki means the equilibrium dissociation constant of an inhibitor or competing ligand from its target.
